TGI data for 24 compounds are collected here from PubChem BioAssay (NCI).

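A five-concentration, 48-hour dose response in 96-well plates underlies each endpoint, interpolated linearly between surrounding concentrations. TGI: total growth inhibition.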

Among the test systems are NCI-H23 lung; MDA-MB-435; CAKI-1 renal; SNB-75 CNS; RPMI-8226 leukemia; SF-539 CNS; OVCAR-4 ovarian; T-47D breast; UACC-62 melanoma; A498 renal; BT-549 breast.
Holding throughout (assay): NCI anticancer screen, dose series, 48 h

As for `C1CCC2C(C1)CCCC2NC1=NCCO1` (centres undefined), the TGI in the test with NCI-H23 lung, with MDA-MB-435, with CAKI-1 renal, in the test on SNB-75 CNS, in the test on RPMI-8226 leukemia and with SF-539 CNS was greater than 100 µM each time. In addition, the TGI in the test with OVCAR-4 ovarian, in the test with T-47D breast, with UACC-62 melanoma and in the test on A498 renal was greater than 100 µM each time.
`O=C1c2ccccc2C(=O)N1Cc1ccccc1-c1c2nc(c(-c3ccccc3CN3C(=O)c4ccccc4C3=O)c3ccc([nH]3)c(-c3ccccc3CN3C(=O)c4ccccc4C3=O)c3nc(c(-c4ccccc4CN4C(=O)c5ccccc5C4=O)c4ccc1[nH]4)C=C3)C=C2`: the TGI in the test with NCI-H23 lung, in the test on CAKI-1 renal, with SNB-75 CNS, in the test on RPMI-8226 leukemia, with SF-539 CNS and with OVCAR-4 ovarian was greater than 100 µM throughout. The TGI with UACC-62 melanoma and in the test with A498 renal was greater than 100 µM each time.
On to `NC1=NS(=O)(=O)Nc2nc(-c3ccc(Cl)cc3)c(-c3ccc(Cl)cc3)nc21`, for which the TGI in the test with NCI-H23 lung, in the test on CAKI-1 renal, in the test with SNB-75 CNS, in the test on SF-539 CNS, in the test with OVCAR-4 ovarian and with UACC-62 melanoma was greater than 100 µM in each case.
In the case of `CC1=COC(C)(C=C(C#N)C#N)CC1` (centres undefined), the TGI in the test on NCI-H23 lung was greater than 100 µM; with MDA-MB-435 it was greater than 100 µM; in the test with SNB-75 CNS, greater than 100 µM; in the test with RPMI-8226 leukemia it was greater than 100 µM; in the test on SF-539 CNS, 51.1 µM; in the test with OVCAR-4 ovarian, greater than 100 µM. Further, the TGI in the test with T-47D breast, in the test with UACC-62 melanoma and with A498 renal was greater than 100 µM each time.
With `NC1=NS(=O)(=O)Nc2nc(-c3ccc([N+](=O)[O-])cc3)[nH]c21`, the TGI in the test with NCI-H23 lung, in the test on CAKI-1 renal, with SNB-75 CNS, in the test on RPMI-8226 leukemia, with SF-539 CNS and with OVCAR-4 ovarian was greater than 100 µM throughout. Moreover, the TGI with UACC-62 melanoma was greater than 100 µM.
Consider `NP(=O)(OCC1=CC(=O)c2ccccc2C1=O)N(CCBr)CCBr` (centres undefined), for which the TGI was 14.2 µM with NCI-H23 lung; 4.74 µM in the test on MDA-MB-435; 8.1 µM in the test with CAKI-1 renal; greater than 35.8 µM with SNB-75 CNS; greater than 67.3 µM in the test with RPMI-8226 leukemia; 18.7 µM in the test with SF-539 CNS. For the same compound, the TGI with OVCAR-4 ovarian worked out at 31.6 µM; with T-47D breast, 29.7 µM; in the test on UACC-62 melanoma it was 5.3 µM; in the test with A498 renal it was 39.3 µM.
Turning to `Cc1cc(C)[n+](CCOc2ccc(/C(=C(/Cl)c3ccccc3)c3ccccc3)cc2)c(C)c1`, the TGI with NCI-H23 lung is 6.94 µM; in the test on CAKI-1 renal it was 20.3 µM; in the test with SNB-75 CNS, 4.3 µM; with RPMI-8226 leukemia it was 3.59 µM; in the test on SF-539 CNS it was 9.82 µM; with OVCAR-4 ovarian, 13.5 µM. Besides, the TGI in the test with UACC-62 melanoma worked out at 4.92 µM; with A498 renal, 30.2 µM.
`N#C/C(=C\n1ccc(=O)[nH]c1=S)C(N)=O`: the TGI in the test on NCI-H23 lung, with MDA-MB-435, in the test on CAKI-1 renal, with SNB-75 CNS, with RPMI-8226 leukemia and in the test on SF-539 CNS was greater than 100 µM in each case. In addition, the TGI in the test with OVCAR-4 ovarian, with T-47D breast, with UACC-62 melanoma and in the test with A498 renal was greater than 100 µM each time.
As to `Cc1ccc2c(c1)[nH]c1cc(C(F)(F)F)ccc1[p+]2=O` (centres undefined), the TGI was greater than 100 µM in the test on NCI-H23 lung; greater than 100 µM in the test with MDA-MB-435; greater than 100 µM in the test with CAKI-1 renal; 55.9 µM with SNB-75 CNS; greater than 100 µM with SF-539 CNS; 79.2 µM in the test on OVCAR-4 ovarian. In addition, the TGI in the test with T-47D breast is greater than 100 µM; in the test on UACC-62 melanoma, 54.9 µM; in the test on A498 renal, 74.5 µM.
With `NC1=NS(=O)(=O)Nc2nc(-c3ccc([N+](=O)[O-])o3)[nH]c21`, the TGI in the test on NCI-H23 lung amounted to 39.4 µM; with CAKI-1 renal it was 35.7 µM; with SNB-75 CNS, 30.3 µM; in the test on RPMI-8226 leukemia, 46.7 µM; with SF-539 CNS, 31.6 µM; with OVCAR-4 ovarian, 31.3 µM. The TGI in the test on UACC-62 melanoma is 30 µM; in the test on A498 renal, greater than 100 µM.
For `CN(C)Cc1cc(C(=O)/C=C/c2ccccc2Cl)cc(CN(C)C)c1O`, the TGI stood at 35 µM with NCI-H23 lung; 26.3 µM in the test on MDA-MB-435; 14.4 µM in the test with CAKI-1 renal; 19.7 µM in the test on SNB-75 CNS; 56.5 µM in the test with RPMI-8226 leukemia; 20 µM in the test with BT-549 breast. The TGI in the test on SF-539 CNS came out at 34 µM; in the test with A498 renal, 29.5 µM.
On to `CC(=O)OC1CC2C(C)(C)OC(=O)CC(OC(C)=O)[C@]2(C)C2CCC3(C)C(=CCC3[C@H]3COC(=O)C3)[C@]12C` (some centres undefined), for which the TGI with NCI-H23 lung, in the test with CAKI-1 renal, in the test with SNB-75 CNS, in the test with RPMI-8226 leukemia, in the test with SF-539 CNS and in the test on OVCAR-4 ovarian was greater than 100 µM throughout. Also, the TGI in the test on UACC-62 melanoma and in the test with A498 renal was greater than 100 µM in each case.
Turning to `COc1cc(Nc2c3ccccc3nc3ccccc23)ccc1NS(C)(=O)=O`, the TGI in the test on SNB-75 CNS is 47.1 µM; in the test on RPMI-8226 leukemia, greater than 100 µM; with SF-539 CNS, 15.6 µM; in the test on OVCAR-4 ovarian, 12.3 µM; with UACC-62 melanoma it was 26.7 µM; in the test with A498 renal it was 19.6 µM.
With `CCc1ccc2oc(-c3cc(O)c(-c4nc5cc(CC)ccc5o4)cc3O)nc2c1`, the TGI in the test on NCI-H23 lung, in the test on MDA-MB-435, in the test on SNB-75 CNS, with RPMI-8226 leukemia, in the test with SF-539 CNS and in the test with T-47D breast was greater than 100 µM each time. In addition, the TGI with UACC-62 melanoma and in the test on A498 renal was greater than 100 µM throughout.
In the case of `CC(C)C(=O)/C=C/c1ccc(Br)cc1`, the TGI with NCI-H23 lung amounted to 38.2 µM; in the test with SNB-75 CNS it was 32.8 µM; with RPMI-8226 leukemia, 39.2 µM; in the test on SF-539 CNS, 35.5 µM; with OVCAR-4 ovarian, 63.3 µM; in the test with UACC-62 melanoma, 28 µM. In addition, in the test with A498 renal, the TGI is 28 µM.
For the compound `Cc1[nH]c(=O)[nH]c(=O)c1/C=C/C(=O)O`, the TGI with NCI-H23 lung, in the test with CAKI-1 renal, in the test with SNB-75 CNS, in the test on RPMI-8226 leukemia, in the test on SF-539 CNS and in the test with OVCAR-4 ovarian was greater than 1000 µM each time. In addition, the TGI in the test on UACC-62 melanoma and in the test on A498 renal was greater than 1000 µM throughout.
Take `Nc1ccc2[nH]c3c(-c4ccccc4)nccc3c2c1`: the TGI in the test with NCI-H23 lung is greater than 100 µM; in the test on SNB-75 CNS it was greater than 92.7 µM; in the test on RPMI-8226 leukemia, greater than 100 µM; in the test on SF-539 CNS, greater than 100 µM; in the test with OVCAR-4 ovarian, greater than 75.5 µM; with UACC-62 melanoma it was greater than 80.8 µM. This compound also yielded a TGI in the test on A498 renal greater than 100 µM.
`COC(=O)C1=C2SCc3cccc(c3)CSC3=C(C(=O)OC)SC(=C(S2)S1)S3`: the TGI in the test on MDA-MB-435, in the test with CAKI-1 renal, in the test with SNB-75 CNS, in the test with RPMI-8226 leukemia, with OVCAR-4 ovarian and with T-47D breast was greater than 100 µM throughout. Further, the TGI in the test on UACC-62 melanoma and with A498 renal was greater than 100 µM each time.
In the case of `O=C1c2ccccc2CCCCCCCCCCC12OCCCO2`, the TGI was greater than 100 µM with NCI-H23 lung; 95.7 µM with CAKI-1 renal; greater than 100 µM with SNB-75 CNS; 40 µM in the test with RPMI-8226 leukemia; greater than 100 µM with SF-539 CNS; greater than 100 µM with OVCAR-4 ovarian. The TGI was greater than 100 µM with UACC-62 melanoma and 97.5 µM with A498 renal.
In the case of `CC(=O)Nc1cc2c(s1)CCC1CC(=O)NN=C21` (centres undefined), the TGI in the test on NCI-H23 lung, in the test on SNB-75 CNS, in the test on RPMI-8226 leukemia, in the test with SF-539 CNS, in the test on OVCAR-4 ovarian and in the test on UACC-62 melanoma was greater than 100 µM throughout.
Consider `COC(=O)[C@@H]1CCCN1CCN1CCC[C@H]1C(=O)OC`, for which the TGI with NCI-H23 lung, with MDA-MB-435, in the test on CAKI-1 renal, with RPMI-8226 leukemia, with SF-539 CNS and with OVCAR-4 ovarian was greater than 100 µM throughout. Further, the TGI in the test with T-47D breast, in the test on UACC-62 melanoma and in the test with A498 renal was greater than 100 µM throughout.
As to `Nc1ccc(N=Nc2ccccc2)cc1`, the TGI in the test on NCI-H23 lung was greater than 100 µM; in the test with MDA-MB-435, greater than 100 µM; with CAKI-1 renal, greater than 100 µM; with SNB-75 CNS, 56 µM; in the test on BT-549 breast, greater than 100 µM; in the test on SF-539 CNS, greater than 100 µM. Also, the TGI in the test on OVCAR-4 ovarian, in the test with UACC-62 melanoma and in the test with A498 renal was greater than 100 µM throughout.
Consider `O=C(NC(Cc1ccc(I)cc1)C(=O)O)c1ccc(Br)cc1` (centres undefined), for which the TGI in the test with NCI-H23 lung, in the test on CAKI-1 renal, in the test on SNB-75 CNS, in the test with RPMI-8226 leukemia, in the test on SF-539 CNS and in the test with OVCAR-4 ovarian was greater than 100 µM each time. The TGI in the test on UACC-62 melanoma and in the test on A498 renal was greater than 100 µM throughout.
For `NCCN=C(Nc1ccccc1)Nc1ccccc1`, the TGI with NCI-H23 lung, with MDA-MB-435, with CAKI-1 renal, with SNB-75 CNS, in the test on RPMI-8226 leukemia and in the test on BT-549 breast was greater than 100 µM throughout. Also, the TGI in the test on SF-539 CNS, in the test with OVCAR-4 ovarian and in the test with UACC-62 melanoma was greater than 100 µM in each case.
